Experimental data from patent publication US20220127337A1 (priority 2020, published 2022).

Experiments:
[1] = tested on: CoV-2 ORF3a-mediated activation of caspase 1; type: cell-based, human
SARS-CoV = details: Lu W et al. Proc Natl Acad Sci USA 103, 12540-12545 (2006); cited from earlier work

[Ba+2] [barium]
CoV-2 ORF3a-mediated activation of caspase 1 [1]: able to curb CoV-2 ORF3a-mediated activation of caspase 1 | release of SARS-CoV virions (SARS-CoV): block the release of SARS-CoV virions
